Test results as given in patent US20230096766A1, “AMINO ACID HAVING FUNCTIONAL GROUP CAPABLE OF INTERMOLECULAR HYDROGEN BONDING, PEPTIDE COMPOUND CONTAINING SAME AND METHOD FOR PRODUCTION THEREOF” (Chugai Seiyaku Kabushiki Kaisha, priority 2018, published 2023).
*1 amine or outer side, *2 acyl side, *3 side chain or, on linkers, in order; H or OH if unused. Where a SMILES comes first, the peptide text is derived from it. Bridges are numbered along the chain shown (N, C = ends). [ ]: non-standard residue; d: D form. The star is where a group is joined. ξ: configuration not given here. Glu(NHSO2Me) = CS(=O)(=O)NC(=O)CC[C@H](N)C(=O)O; Phe(4-CF3) = N[C@@H](Cc1ccc(C(F)(F)F)cc1)C(=O)O; NMePhe(3-Cl) = CN[C@@H](Cc1cccc(Cl)c1)C(=O)O; ξGln(SO2Me) = CS(=O)(=O)NC(=O)CCC(N)C(=O)O; NMeF = CN[C@@H](Cc1ccccc1)C(=O)O; NMeGABA = CN(CCCC(=O)[*:2])[*:1]; NMeI = CC[C@H](C)[C@H](NC)C(=O)O; NMeL = CN[C@@H](CC(C)C)C(=O)O; NMeV = CN[C@H](C(=O)O)C(C)C; NMeAbu = CC[C@H](NC)C(=O)O; NMeA = CN[C@@H](C)C(=O)O; Piperidide = C1CCN(*)CC1; Me2NCH2CH2 = CN(C)CC*; NBuGly = CCCCNCC(=O)O; Isopentyl = CC(C)CC*; NPrGly = CCCNCC(=O)O; ξS = NC(CO)C(=O)O; Sar = CNCC(=O)O; tBu = CC(C)(C)*

Experiment: in vitro
Settings: human
[1] = Caco-2, Caco-2 (membrane permeability)

| Structure (SMILES) | Papp [1] [×10⁻⁶ cm/s] | Papp (Caco-2, Caco-2) [×10⁻⁶ cm/s] |
| --- | --- | --- |
| CCCCN1CC(=O)N(C)[C@@H](CC(C)C)C(=O)N[C@@H](CCC(=O)NC)C(=O)N(C)[C@@H](Cc2ccccc2)C(=O)N(C)[C@@H]([C@@H](C)CC)C(=O)N[C@H](C(=O)N2CCCCC2)CC(=O)N[C@H](CC(C)C)C(=O)N(C)[C@@H](CC(C)C)C(=O)N[C@@H](Cc2ccc(C(F)(F)F)cc2)C(=O)N(C)[C@@H](CC(C)C)C(=O)N[C@@H]([C@@H](C)O)C1=O [Compound J02] ([dL][NMeL][Phe(4-CF3)][NMeL]T[NBuGly][NMeL]E(NHMe)[NMeF][NMeI]D-Piperidide; lactam N-11) | 0.004 |  |
| CCCN1CC(=O)N(C)[C@@H](CC(C)C)C(=O)N[C@H](C(=O)N2CCCCC2)CC(=O)N(C)[C@@H](CC(C)C)C(=O)N[C@@H](CCC(=O)NC)C(=O)N(C)[C@@H](CC(C)C)C(=O)N(C)[C@@H](Cc2ccccc2)C(=O)N[C@@H](CC(C)C)C(=O)N(C)[C@@H](Cc2ccccc2)C(=O)N(C)[C@@H]([C@@H](C)CC)C(=O)N[C@@H]([C@@H](C)O)C1=O [Compound J03] ([NMeL]E(NHMe)[NMeL][NMeF]L[NMeF][NMeI]T[NPrGly][NMeL]D-Piperidide; lactam N-11) | 0.21 |  |
| CCCN1CC(=O)N(C)[C@@H](CC(C)C)C(=O)N[C@H](C(=O)N2CCCCC2)CC(=O)N(C)[C@@H](CC(C)C)C(=O)N[C@@H](Cc2ccc(C(F)(F)F)cc2)C(=O)N(C)[C@@H](CC(C)C)C(=O)N(C)[C@@H](CC(C)C)C(=O)N[C@@H](CCC(=O)NC)C(=O)N(C)[C@@H](Cc2ccccc2)C(=O)N(C)[C@@H]([C@@H](C)CC)C(=O)N[C@@H]([C@@H](C)O)C1=O [Compound J04] ([NMeL][Phe(4-CF3)][NMeL][NMeL]E(NHMe)[NMeF][NMeI]T[NPrGly][NMeL]D-Piperidide; lactam N-11) | 0.087 |  |
| CCCCN1CC(=O)N(C)[C@@H](Cc2ccccc2)C(=O)N[C@@H](CCC(=O)NC)C(=O)N(C)[C@@H](CC(C)C)C(=O)N[C@@H]([C@@H](C)O)C(=O)N(CCCC)CC(=O)N(C)[C@@H](Cc2ccccc2)C(=O)N(C)[C@@H](CC(C)C)C(=O)N[C@@H](CC(C)C)C(=O)N(C)[C@@H]([C@@H](C)CC)C(=O)N[C@H](C(=O)N2CCCCC2)CC1=O [Compound J05] ([NBuGly][NMeF]E(NHMe)[NMeL]T[NBuGly][NMeF][NMeL]L[NMeI]D-Piperidide; lactam N-11) | 0.052 |  |
| CCCCN1CC(=O)N(C)[C@@H](Cc2ccccc2)C(=O)N[C@@H]([C@@H](C)CC)C(=O)N(C)[C@@H](CC(C)C)C(=O)N[C@@H]([C@@H](C)O)C(=O)N(CCCC)CC(=O)N(C)[C@@H](Cc2ccccc2)C(=O)N(C)[C@@H](CC(C)C)C(=O)N[C@@H](CCC(=O)NC)C(=O)N(C)[C@@H]([C@@H](C)CC)C(=O)N[C@H](C(=O)N2CCCCC2)CC1=O [Compound J06] ([NBuGly][NMeF]I[NMeL]T[NBuGly][NMeF][NMeL]E(NHMe)[NMeI]D-Piperidide; lactam N-11) | 0.0085 |  |
| CCCN1CC(=O)N(C)[C@@H](CC(C)C)C(=O)N[C@@H](COC(C)(C)C)C(=O)N(C)[C@@H](Cc2ccccc2)C(=O)N(C)[C@@H](C(C)C)C(=O)N[C@H](C(=O)N2CCCCC2)CC(=O)N[C@H](C(C)C)C(=O)N(C)[C@@H](Cc2ccccc2)C(=O)N[C@@H](COCCN(C)C)C(=O)N(C)[C@@H](CC(C)C)C(=O)N[C@@H]([C@@H](C)O)C1=O [pd50] ([dV][NMeF]S(Me2NCH2CH2)[NMeL]T[NPrGly][NMeL]S(tBu)[NMeF][NMeV]D-Piperidide; lactam N-11) |  | 0.15 |
| CCCCN1CC(=O)N(C)[C@@H](CC(C)C)C(=O)N[C@@H](COCCN(C)C)C(=O)N(C)[C@@H](Cc2ccccc2)C(=O)N(C)[C@@H](C(C)C)C(=O)N[C@H](C(=O)N2CCCCC2)CC(=O)N[C@H](CC(C)C)C(=O)N(C)[C@@H](Cc2ccccc2)C(=O)N[C@@H](CC(C)C)C(=O)N(C)[C@@H](CC(C)C)C(=O)N[C@@H]([C@@H](C)O)C1=O [pd51] ([dL][NMeF]L[NMeL]T[NBuGly][NMeL]S(Me2NCH2CH2)[NMeF][NMeV]D-Piperidide; lactam N-11) |  | 0.07 |
| CCCN1CC(=O)N(C)[C@@H](CC(C)C)C(=O)N[C@@H](COCCN(C)C)C(=O)N(C)[C@@H](Cc2ccccc2)C(=O)N(C)[C@@H](C(C)C)C(=O)N[C@H](C(=O)N2CCCCC2)CC(=O)N[C@H](C(C)C)C(=O)N(C)[C@@H](Cc2ccccc2)C(=O)N[C@@H](CC(C)C)C(=O)N(C)[C@@H](CC(C)C)C(=O)N[C@@H]([C@@H](C)O)C1=O [pd52] ([dV][NMeF]L[NMeL]T[NPrGly][NMeL]S(Me2NCH2CH2)[NMeF][NMeV]D-Piperidide; lactam N-11) |  | 0.12 |
| CCCCN1CC(=O)N(C)[C@@H](CC(C)C)C(=O)N[C@@H](COC(C)(C)C)C(=O)N(C)[C@@H](Cc2ccccc2)C(=O)N(C)[C@@H](C(C)C)C(=O)N[C@H](C(=O)N2CCCCC2)CC(=O)N[C@H](C(C)C)C(=O)N(C)[C@@H](Cc2ccccc2)C(=O)N[C@@H](COCCN(C)C)C(=O)N(C)[C@@H](CC(C)C)C(=O)N[C@@H]([C@@H](C)O)C1=O [pd53] ([dV][NMeF]S(Me2NCH2CH2)[NMeL]T[NBuGly][NMeL]S(tBu)[NMeF][NMeV]D-Piperidide; lactam N-11) |  | 0.14 |
| CC(C)C[C@@H]1NC(=O)[C@H](CC(C)C)N(C)C(=O)CCCN(C)C(=O)C[C@@H](C(=O)N2CCCCC2)NC(=O)[C@H](CC(C)C)N(C)C(=O)[C@H](CC(C)C)N(C)C(=O)[C@H]([C@@H](C)O)NC(=O)[C@H](CC(C)C)N(C)C(=O)[C@H](COCCN(C)C)NC(=O)[C@H](Cc2ccccc2)N(C)C(=O)[C@H](Cc2ccccc2)N(C)C1=O [pd54] ([NMeGABA][NMeL]L[NMeF][NMeF]S(Me2NCH2CH2)[NMeL]T[NMeL][NMeL]D-Piperidide; lactam N-11) |  | 0.073 |
| CCCCN1CC(=O)N(C)[C@@H](C(C)C)C(=O)N[C@H](C(=O)N2CCCCC2)CC(=O)N(C)[C@@H](C)C(=O)N[C@@H](COCCN(C)C)C(=O)N(C)[C@@H](CC(C)C)C(=O)N(C)[C@@H](Cc2ccccc2)C(=O)N[C@@H](CC(C)C)C(=O)N(C)[C@@H](Cc2ccccc2)C(=O)N(C)[C@@H](CC(C)C)C(=O)N[C@@H]([C@@H](C)O)C1=O [pd56] ([NMeA]S(Me2NCH2CH2)[NMeL][NMeF]L[NMeF][NMeL]T[NBuGly][NMeV]D-Piperidide; lactam N-11) |  | 0.12 |
| CCCN1CC(=O)N(C)[C@@H](C(C)C)C(=O)N[C@H](C(=O)N2CCCCC2)CC(=O)N(C)[C@@H](C)C(=O)N[C@@H](CC(C)C)C(=O)N(C)[C@@H](CC(C)C)C(=O)N(C)[C@@H](Cc2ccccc2)C(=O)NC(COCCN(C)C)C(=O)N(C)[C@@H](Cc2ccccc2)C(=O)N(C)[C@@H](CC(C)C)C(=O)N[C@@H]([C@@H](C)O)C1=O (stereo partly drawn) [pd57] ([NMeA]L[NMeL][NMeF][ξS](Me2NCH2CH2)[NMeF][NMeL]T[NPrGly][NMeV]D-Piperidide; lactam N-11) |  | 0.12 |
| CCCCN1CC(=O)N(C)[C@@H](Cc2ccccc2)C(=O)N[C@@H](COCCN(C)C)C(=O)N(C)[C@@H](CC(C)C)C(=O)N[C@@H]([C@@H](C)O)C(=O)N(C)CC(=O)N(C)[C@@H](Cc2ccccc2)C(=O)N(C)[C@@H](CC)C(=O)N[C@@H](COCCC(C)C)C(=O)N(C)[C@@H](CC(C)C)C(=O)N[C@H](C(=O)N2CCCCC2)CC1=O [pd58] ([NBuGly][NMeF]S(Me2NCH2CH2)[NMeL]T[Sar][NMeF][NMeAbu]S(Isopentyl)[NMeL]D-Piperidide; lactam N-11) |  | 0.021 |
| CCCCN1CC(=O)N(C)[C@@H](CC(C)C)C(=O)N[C@@H](CC(C)C)C(=O)N(C)[C@@H](Cc2ccccc2)C(=O)N(C)[C@@H](C(C)C)C(=O)N[C@H](C(=O)N2CCCCC2)CC(=O)N[C@H](CC(C)C)C(=O)N(C)[C@@H](Cc2cccc(Cl)c2)C(=O)N[C@@H](CCC(=O)NS(C)(=O)=O)C(=O)N(C)[C@@H](CC(C)C)C(=O)N[C@@H]([C@@H](C)O)C1=O [pd59] ([dL][NMePhe(3-Cl)][Glu(NHSO2Me)][NMeL]T[NBuGly][NMeL]L[NMeF][NMeV]D-Piperidide; lactam N-11) |  | < 0.0088 |
| CCCCN1CC(=O)N(C)[C@@H](CC(C)C)C(=O)N[C@@H](CCC(=O)NS(C)(=O)=O)C(=O)N(C)[C@@H](Cc2cccc(Cl)c2)C(=O)N(C)[C@@H](C(C)C)C(=O)N[C@H](C(=O)N2CCCCC2)CC(=O)N[C@H](CC(C)C)C(=O)N(C)[C@@H](Cc2cccc(Cl)c2)C(=O)N[C@@H](CC(C)C)C(=O)N(C)[C@@H](CC(C)C)C(=O)N[C@@H]([C@@H](C)O)C1=O [pd60] ([dL][NMePhe(3-Cl)]L[NMeL]T[NBuGly][NMeL][Glu(NHSO2Me)][NMePhe(3-Cl)][NMeV]D-Piperidide; lactam N-11) |  | 0.01 |
| CCCCN1CC(=O)N(C)[C@@H](CC(C)C)C(=O)N[C@@H](CCC(=O)NS(C)(=O)=O)C(=O)N(C)[C@@H](Cc2cccc(Cl)c2)C(=O)N(C)[C@@H](C(C)C)C(=O)N[C@H](C(=O)N2CCCCC2)CC(=O)N[C@H](CC(C)C)C(=O)N(C)[C@@H](Cc2cccc(Cl)c2)C(=O)N[C@@H](CC(C)C)C(=O)N(C)[C@@H](CC)C(=O)N[C@@H]([C@@H](C)O)C1=O [pd61] ([dL][NMePhe(3-Cl)]L[NMeAbu]T[NBuGly][NMeL][Glu(NHSO2Me)][NMePhe(3-Cl)][NMeV]D-Piperidide; lactam N-11) |  | < 0.094 |
| CCCCN1CC(=O)N(C)[C@@H](C(C)C)C(=O)N[C@H](C(=O)N2CCCCC2)CC(=O)N(C)[C@@H](CC(C)C)C(=O)NC(CCC(=O)NS(C)(=O)=O)C(=O)N(C)[C@@H](CC(C)C)C(=O)N(C)[C@@H](Cc2ccccc2)C(=O)N[C@@H](CC(C)C)C(=O)N(C)[C@@H](Cc2ccccc2)C(=O)N(C)[C@@H](CC(C)C)C(=O)N[C@@H]([C@@H](C)O)C1=O (stereo partly drawn) [pd62] ([NMeL][ξGln(SO2Me)][NMeL][NMeF]L[NMeF][NMeL]T[NBuGly][NMeV]D-Piperidide; lactam N-11) |  | < 0.13 |
| CCCCN1CC(=O)N(C)[C@@H](C(C)C)C(=O)N[C@H](C(=O)N2CCCCC2)CC(=O)N(C)[C@@H](CC)C(=O)NC(CCC(=O)NS(C)(=O)=O)C(=O)N(C)[C@@H](CC(C)C)C(=O)N(C)[C@@H](Cc2cccc(Cl)c2)C(=O)N[C@@H](CC(C)C)C(=O)N(C)[C@@H](Cc2ccccc2)C(=O)N(C)[C@@H](CC(C)C)C(=O)N[C@@H]([C@@H](C)O)C1=O (stereo partly drawn) [pd63] ([NMeAbu][ξGln(SO2Me)][NMeL][NMePhe(3-Cl)]L[NMeF][NMeL]T[NBuGly][NMeV]D-Piperidide; lactam N-11) |  | < 0.1 |
